ChEMBL document CHEMBL1201862, “PubChem BioAssay data set” (2004)
Structures can show the parent of a compound that is named as a salt.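 Cells were grown in 96-well plates and exposed to each compound for 48 hours at five concentrations; endpoints were interpolated linearly between bracketing concentrations, or set to the highest concentration if not reached. GI50 marks 50% less growth.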 The source made the active and inactive calls. Cut-off read from the data, not from the text of the source: active = GI50 up to about 1.1 µM and inactive = higher.

Key:
Test in all cases: inhibition of tumour cell growth, NCI panel, 48 h
786-0 = test system: 786-0
CAKI-1 = test system: CAKI-1
DU-145 = test system: DU-145
HCC 2998 = test system: HCC 2998
HOP-62 = test system: HOP-62
HOP-92 = test system: HOP-92
KM12 = test system: KM12
MCF7 = test system: MCF7
MOLT-4 = test system: MOLT-4
OVCAR-3 = test system: OVCAR-3
OVCAR-4 = test system: OVCAR-4
SF-295 = test system: SF-295
SK-MEL-28 = test system: SK-MEL-28
SNB-75 = test system: SNB-75
SW-620 = test system: SW-620
TK-10 = test system: TK-10
U-251 = test system: U-251
UACC-257 = test system: UACC-257
M14 = test system: M14
SK-OV-3 = test system: SK-OV-3

| SMILES | GI50 (786-0) | GI50 (CAKI-1) | GI50 (DU-145) | GI50 (HCC 2998) | GI50 (HOP-62) | GI50 (HOP-92) | GI50 (KM12) | GI50 (MCF7) | GI50 (MOLT-4) | GI50 (OVCAR-3) | GI50 (OVCAR-4) | GI50 (SF-295) | GI50 (SK-MEL-28) | GI50 (SNB-75) | GI50 (SW-620) | GI50 (TK-10) | GI50 (U-251) | GI50 (UACC-257) | GI50 (M14) | GI50 (SK-OV-3) |
| --- | --- | --- | --- | --- | --- | --- | --- | --- | --- | --- | --- | --- | --- | --- | --- | --- | --- | --- | --- | --- |
| CC(C)(C)OC(=O)NC(Cc1ccc(OCc2ccccc2)cn1)C(N)=O (stereo not given) | > 100 µM (inactive) | > 100 µM (inactive) | > 100 µM (inactive) | > 100 µM (inactive) | > 100 µM (inactive) | > 100 µM (inactive) | > 100 µM (inactive) | 46.3 µM (inactive) | > 10 µM (inactive) | 94.8 µM (inactive) | 45.7 µM (inactive) | > 100 µM (inactive) | > 100 µM (inactive) | > 100 µM (inactive) | > 100 µM (inactive) | > 100 µM (inactive) | > 100 µM (inactive) | 75.2 µM (inactive) | – | – |
| CC1(C)C2CCC3CC(CCC#N)CCC3C21C#N (stereo not given) | > 100 µM (inactive) | > 100 µM (inactive) | > 100 µM (inactive) | > 100 µM (inactive) | > 100 µM (inactive) | > 100 µM (inactive) | 18 µM (inactive) | > 100 µM (inactive) | > 100 µM (inactive) | > 100 µM (inactive) | > 100 µM (inactive) | > 100 µM (inactive) | > 100 µM (inactive) | – | > 100 µM (inactive) | > 100 µM (inactive) | > 100 µM (inactive) | > 100 µM (inactive) | > 100 µM (inactive) | > 100 µM (inactive) |
| CC1(C)C=C(/C=N/Nc2ccccc2)C(C#N)=C(O)C1(C#N)C#N | > 100 µM (inactive) | > 100 µM (inactive) | > 100 µM (inactive) | > 100 µM (inactive) | > 100 µM (inactive) | 28.5 µM (inactive) | > 100 µM (inactive) | > 100 µM (inactive) | 57.7 µM (inactive) | > 100 µM (inactive) | > 100 µM (inactive) | 90.4 µM (inactive) | > 100 µM (inactive) | > 100 µM (inactive) | > 100 µM (inactive) | > 100 µM (inactive) | – | > 100 µM (inactive) | > 100 µM (inactive) | > 100 µM (inactive) |
| O=C(/C(=C(/Br)I)c1ccccc1)c1ccccc1 | 18.2 µM (inactive) | 38.5 µM (inactive) | 14.3 µM (inactive) | 13.6 µM (inactive) | – | 18.8 µM (inactive) | 19.5 µM (inactive) | 30.9 µM (inactive) | 15.2 µM (inactive) | 21.4 µM (inactive) | – | 27.2 µM (inactive) | – | 26.3 µM (inactive) | – | 27.2 µM (inactive) | 25.8 µM (inactive) | 17.8 µM (inactive) | 16.3 µM (inactive) | 38.5 µM (inactive) |
| CC[C@H](C)[C@H]1NC(=O)[C@@H](NC(=O)[C@@H](CC(C)C)N(C)C(=O)C2CCCN2C(=O)[C@H](C)O)[C@@H](C)OC(=O)[C@H](Cc2ccccc2)N(C)C(=O)[C@@H]2CCCN2C(=O)[C@H](CC(C)C)NC(=O)[C@@H](C)C(=O)[C@H](C(C)C)OC(=O)C[C@@H]1O (stereo not given in full) | < 0.00625 µM (active) | < 0.00625 µM (active) | < 0.00625 µM (active) | < 0.00625 µM (active) | < 0.00625 µM (active) | < 0.00625 µM (active) | < 0.00625 µM (active) | < 0.00625 µM (active) | < 0.00625 µM (active) | < 0.00625 µM (active) | < 0.00625 µM (active) | < 0.00625 µM (active) | < 0.00625 µM (active) | < 0.00625 µM (active) | < 0.00625 µM (active) | < 0.00625 µM (active) | < 0.00625 µM (active) | < 0.00625 µM (active) | < 0.00625 µM (active) | < 0.00625 µM (active) |
| c1csc(-c2ccsc2-c2cccs2)c1 | > 100 µM (inactive) | > 100 µM (inactive) | > 100 µM (inactive) | 53.7 µM (inactive) | > 100 µM (inactive) | > 100 µM (inactive) | 47.6 µM (inactive) | 34.6 µM (inactive) | 11.9 µM (inactive) | > 100 µM (inactive) | 33 µM (inactive) | > 100 µM (inactive) | – | 54.6 µM (inactive) | 80.4 µM (inactive) | > 100 µM (inactive) | > 100 µM (inactive) | > 100 µM (inactive) | 59.2 µM (inactive) | > 100 µM (inactive) |
| CN(C)CCOc1ccc(/C(=C(/CCCl)c2ccccc2)c2ccccc2)cc1 [TOREMIFENE CITRATE] | 17.8 µM (inactive) | 15 µM (inactive) | 17.7 µM (inactive) | 5.16 µM (inactive) | 15.5 µM (inactive) | 3.67 µM (inactive) | 17.7 µM (inactive) | 1.58 µM (inactive) | 18.7 µM (inactive) | 11.9 µM (inactive) | 17.3 µM (inactive) | 15 µM (inactive) | 16 µM (inactive) | 11.9 µM (inactive) | 16.5 µM (inactive) | 15.3 µM (inactive) | 17.8 µM (inactive) | 20.3 µM (inactive) | 14.1 µM (inactive) | – |
